Laboratory results reported in article PMC4105567, “Aurora Kinases as Druggable Targets in Pediatric Leukemia: Heterogeneity in Target Modulation Activities and Cytotoxicity by Diverse Novel Therapeutic Agents” (PLoS ONE, 2014).
Where two headings read alike, the source gives them in different places.

What was measured:
Molt-3 T-ALL cell line = assay: Cytotoxicity assay, Molt-3; format: cell-based, human; settings: T-ALL cell line Molt-3, four days in culture, Alamar blue assay or automated microscopy, ± SD, three experiments
Procedure: (§1) Cell lines were cultured in Opti-MEM medium (Gibco, Life Technologies Corporation, Burlington, Ontario) supplemented with 10% heat inactivated fetal bovine serum (FBS) (Gibco), 100 units/ml penicillin and 100 units/ml streptomycin (Gibco) and 0.05 mM 2-mercaptoethanol (Sigma-Aldrich, Oakville, Ontario) in T25 flasks (Nalge Nunc, Rochester, New York) or T75 flasks (Corning Incorporated, Corning, New York). All cell cultures were maintained at 37°C in a humidified incubator with 5% CO2.
(§2) For cytotoxicity profiling of Aurora kinase inhibitors against leukemia cell lines, inhibitors or vehicle control (DMSO, Sigma-Aldrich) were diluted in 100 µl of Opti-MEM per well in 96 well plates (Grenier Bio-One, Monroe, North Carolina) in triplicate at final concentrations ranging from 1×10^−6 to 10 µM. 1×10^4 cells per well were seeded and plates were incubated for 4 days. Following incubation for 4 days, cell survival was quantified by Alamar blue assay (Invitrogen) or automated inverted microscopy using the Celigo Cell Cytometer (Cyntellect, San Diego, California). […] During this period of incubation, the absorbance at 570–620 nm was measured (Opsys MR Plate Reader, Dynex Technologies, Chantilly, Virginia) at various time points, depending on the cell line or sample. Percent survival was calculated by comparing the absorbance ratio of the test well to the control well multiplied by 100%, as indicated in the following formula: […]
(§3) For automated inverted microscopy, the number of cells in each well was determined using the direct cell counting application as described previously. Briefly, following adjustment of image acquisition settings for bright-field imaging, the wells containing cells and appropriate dilutions of inhibitors were individually scanned. Based on these images, analysis parameters, including intensity threshold and cell diameter, were modified for optimal inclusion of viable cells in treated and control wells. These parameters were applied for subsequent replicates involving the same leukemia cell line or sample. The percent survival was then calculated as a ratio of the number of cells in treated wells to the number of cells in control wells multiplied by 100%. Given that Aurora kinase inhibitors interfere with cytokinesis, cells that are committed to death may still contain enlarging but intact cytoplasmic content before the eventual loss of cytoplasmic membrane integrity. The accuracy of Alamar blue assay may be, in theory, affected by the timing of these events.

KOPN8 B-ALL cell line = assay: Cytotoxicity assay, KOPN8; format: cell-based, human; settings: four days in culture, Alamar blue assay or automated microscopy, ± SD, three experiments
Procedure: as §1, §2, §3

NB4 APML cell line = assay: Cytotoxicity assay, NB4; format: cell-based, human; settings: four days in culture, Alamar blue assay or automated microscopy, ± SD, three experiments
Procedure: as §1, §2, §3

Aurora-B = tested on: Aurora-B; parameters: method as in earlier work; settings: literature values; ref [10],[22],[27],[40],[44]–[64] as listed per inhibitor in Table 1; read-out: Targets (IC50 Value): Aurora-B; cited from earlier work
UOCB1 B-ALL cell line = assay: Cytotoxicity assay, UOCB1; format: cell-based, human; settings: four days in culture, Alamar blue assay or automated microscopy, ± SD, three experiments
Procedure: as §1, §2, §3

[1] = tested on: normal bone marrow derived CD34+ cells; assay: Hematopoietic colony forming cell assay; format: cell-based, human; settings: myeloid and erythroid colonies from CD34+ cells; for colony formation at 0.1–10 µM: 14 days
Procedure: The hematopoietic colony forming cell assay was conducted based on a protocol outlined by StemCell Technologies (Vancouver, British Columbia, Canada). To begin, CD34^+ cells were isolated from residual normal bone marrow transplant specimens obtained after informed consent. Next, several concentrations of Aurora A Inhibitor I, Hesperadin, ZM447439 and AT9283 (0.01, 0.1, 1, 10 µM) and DMSO (Sigma-Aldrich, Oakville, Ontario) (10 µM) were added to separate tubes of MethoCult (StemCell Technologies), a methylcellulose matrix containing recombinant human cytokines stem cell factor (rh SCF), granulocyte macrophage colony-stimulating factor (rh GM-CSF), interleukin-3 (rh IL-3), granulocyte colony stimulating factor (rh G-CSF) and erythropoietin (rh EPO). Following the addition of CD34^+ cells at a final concentration of 5×10^3 cells per dish, the tubes were vortexed and allowed to stand for 5 minutes at room temperature. Next, the MethoCult mixtures were be dispensed into 35 mm dishes (Corning Incorporated, Corning, New York) through blunt end needles (StemCell Technologies) and 5 ml syringes (BD Biosciences, Mississauga, Ontario) at a volume of 1.1 ml per dish. The medium was evenly distributed across the surface of each dish by gentle tilting and rotation. The dishes were then placed in a 150 mm tissue culture dish (BD Biosciences) containing additional 35 mm dishes with sterile water to maintain humidity. The tissue culture dish was then placed at 37°C in a humidified incubator containing 5% CO2 for 14 days. The number of myeloid and erythroid derived colonies in both the treated and control dishes were counted and compared.

[2] = tested on: Patient #5 ALL/AML primary leukemia cells; assay: Cytotoxicity assay, primary sample Patient #5; format: cell-based, human; settings: primary sample, four days in culture, Alamar blue assay or automated microscopy, one complete study, read-out: IC50, Patient #5 ALL/AML
Procedure: (§4) These include B-ALL (Patient #1), relapsed AML (Patient #2), AML/CML (Patient #3), infant ALL (Patient #4), and initial ALL presenting with secondary AML (Patient #5). […] The diluted sample was then layered on a Ficoll-Paque (GE Healthcare, Piscataway, New Jersey) gradient at a 1∶2 ratio of Ficoll to diluted sample. Samples were then centrifuged 1800 rpm for 20 minutes at room temperature. The buffy coat was removed with a pipette and transferred to a new centrifuge tube and diluted with PBS. After an additional centrifugation at 1200 rpm, the white blood cell pellet was washed with PBS and centrifuged one last time. Cells were re-suspended in Opti-MEM and viable cells were counted using trypan blue (Invitrogen, Life Technologies Corporation, Burlington, Ontario) exclusion on a haemocytometer. An identical protocol was followed for the isolation of white blood cells, referred to as “normal lymphocytes” in the following paragraphs, from healthy volunteers. Samples grown in culture for up to six months were cultured in Opti-MEM medium supplemented with 10% heat inactivated FBS, penicillin/streptomycin and 2-mercaptoethanol.
as §2, §3

CEM T-ALL cell line = assay: Cytotoxicity assay, CEM; format: cell-based, human; settings: four days in culture, Alamar blue assay or automated microscopy, ± SD, three experiments
Procedure: as §1, §2, §3

[3] = tested on: Patient #3 AML/CML primary leukemia cells; assay: Cytotoxicity assay, primary sample Patient #3; format: cell-based, human; settings: four days in culture, Alamar blue assay or automated microscopy, one complete study
Procedure: as §4, §2, §3

Normal Lymphocytes = assay: Cytotoxicity assay, normal lymphocytes; format: cell-based, human; settings: normal lymphocytes (control for non-leukemia cytotoxicity), four days in culture, ± SD, three experiments
Procedure: as §4, §2, §3

Structure (SMILES)	IC50 (Molt-3 T-ALL cell line; Homo sapiens, 96 h) [nM]	IC50 (KOPN8 B-ALL cell line; Homo sapiens, KOPN-8, 96 h) [nM]	IC50 (NB4 APML cell line; Homo sapiens, 96 h) [nM]	IC50 (Aurora-B) [nM]	IC50 (UOCB1 B-ALL cell line; Homo sapiens, UoC-B1, 96 h) [nM]	colony formation at 0.1–10 µM [1]	IC50 ([2]; Homo sapiens, 96 h) [nM]	IC50 (CEM T-ALL cell line; Homo sapiens, 96 h) [nM]	IC50 ([3]; Homo sapiens, 96 h) [nM]	IC50 (Normal Lymphocytes; Homo sapiens, Lymphocyte, 96 h) [nM]	IC50 (Molt-3 T-ALL cell line) [nM]	IC50 (KOPN8 B-ALL cell line) [nM]	IC50 (NB4 APML cell line) [nM]	IC50 (UOCB1 B-ALL cell line) [nM]	concentration up to which colony formation was not affected ([1]; 14 days in methylcellulose culture, tested 0.01, 0.1, 1, 10 µM) [nM]	IC50 [2] [nM]	IC50 (CEM T-ALL cell line) [nM]	IC50 [3] [nM]	IC50 (Normal Lymphocytes) [nM]
O=C(Nc1c[nH]nc1-c1nc2ccc(CN3CCOCC3)cc2[nH]1)NC1CC1 [AT9283]	0.4	2 ± 1	60 ± 30	3	0.08	completely inhibited the formation of both types of colonies	0.3	0.7	1000	9000 ± 1000									
CCN1CCN(C(=O)Cc2ccc(Nc3ncc(F)c(Nc4ccc(C(=O)Nc5ccccc5Cl)cc4)n3)cc2)CC1 [Aurora A Inhibitor I]				3400							300 ± 200	800 ± 50	700 ± 50	20 ± 9	≤ 100	6	300 ± 200	5000	3000 ± 500
CCS(=O)(=O)Nc1ccc2c(c1)/C(=C(/Nc1ccc(CN3CCCCC3)cc1)c1ccccc1)C(=O)N2 [Hesperadin]	< 0.001	0.1	4 ± 1	250	< 0.001	completely inhibited the formation of both types of colonies	0.01	< 0.001	3000	2000 ± 1000									
